Data on three compounds can be found in patent US7666890B2, “Synthesis and herbicidal activity of 1- (2-substituted benzo[d]thiazol-5-yl)-1H-1,2,4-triazol-5(4H)-one derivatives” (Huazhong Normal University, priority 2007, dated 2010).

In one series the test system is Echinochloa crusgalli. Nature of the series: Test of herbicidal activities (greenhouse pot method). It is filed as in vivo. The note with it: Echinochloa crus-galli, 360 h; single dose 300 g ai./h, treated before/after germination, 15 days later, greenhouse pot; read-out: Herbicidal activity Echinochloa crusgalli (inhibition level). The method in brief: (§1)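 Greenhouse pot test on weeds grown in mixed garden/mountain/humus soil at 15-30° C; pre- and post-emergence spray at a single dose of 300 g ai./h via automatic spraying tower (0.2 MPa). Inhibition scored after 15 days into five levels A (90-100%) to E (<50%); triplicate with blank control.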

The subject of the next series is Amaranthus retroflexus. Described as above. It counts as in vivo. To be noted: Amaranthus retroflexus, 360 h; single dose 300 g ai./h, treated before/after germination, 15 days later, greenhouse pot; read-out: Herbicidal activity Amaranthus retroflexus (inhibition level). Summed up:
as §1

The next series concerns Brassica juncea. The series is described as above. It counts as in vivo. The note with it: Brassica juncea, 360 h; single dose 300 g ai./h, treated before/after germination, 15 days later, greenhouse pot; read-out: Herbicidal activity Brassica juncea (inhibition level). Summed up: as §1
A further series deals with Digiatria sanguinalis. The description is as above. It is filed as in vivo. The note with it: 360 h; single dose 300 g ai./h, treated before/after germination, 15 days later, greenhouse pot; read-out: Herbicidal activity Digiatria sanguinalis (inhibition level). Summed up: as §1
A further series deals with Setaria viridis. The series is described as above. It is filed as in vivo. The note with it: Setaria viridis, 360 h; single dose 300 g ai./h, treated before/after germination, 15 days later, greenhouse pot; read-out: Herbicidal activity Setaria viridis (inhibition level). Summed up: as §1
The next series has as its system Chenopodium album. Described as above. It is filed as in vivo. The note with it: Chenopodium album, 360 h; single dose 300 g ai./h, treated before/after germination, 15 days later, greenhouse pot; read-out: Herbicidal activity Chenopodium album (inhibition level). The method in brief:
as §1

As usually defined, the melting point is the temperature of the solid-liquid transition. Usually inhibition stands for the relative decrease from the control value, in per cent. Regarding `Cc1nn(-c2cc3nc(S(=O)(=O)Cc4ccccc4Cl)sc3cc2Cl)c(=O)n1C(F)F` [Compound 39, 1-(2-(2-chlorobenzylsulfonyl)-6-chlorobenzo[d]thiazol-5-yl)-4-(difluoromethyl)-3-methyl-1H-1,2,4-triazol-5(4H)-one], the melting point fell in the range of 196 to 198 °C. In addition, the inhibition at 300 g/ha with Echinochloa crusgalli was < 50%. Besides, the inhibition at 300 g/ha in the series with Amaranthus retroflexus fell in the range of 80 to 90%. For the same compound, in the series on Brassica juncea, the inhibition at 300 g/ha is 80 to 90%. Further, in the series on Digiatria sanguinalis, the inhibition at 300 g/ha is 60 to 80%. For the same compound, the inhibition at 300 g/ha in the series with Setaria viridis is 60 to 80%. Further, the inhibition at 300 g/ha in the series on Chenopodium album fell in the range of 60 to 80%.

In the case of `Cc1nn(-c2cc3nc([S+](C)[O-])sc3cc2F)c(=O)n1C` (stereo not drawn) [Compound 102, 1-(6-fluoro-2-(methylsulfinyl)benzo[d]thiazol-5-yl)-3,4-dimethyl-1H-1,2,4-triazol-5(4H)-one], the melting point is 199 to 201 °C. Further, in the series with Echinochloa crusgalli, the inhibition at 300 g/ha was < 50%. The inhibition at 300 g/ha in the series with Amaranthus retroflexus lay in the range of 80 to 90%. Further, the inhibition at 300 g/ha with Brassica juncea lay within 60 to 80%. The inhibition at 300 g/ha with Digiatria sanguinalis was in the range of 50 to 60%. The inhibition at 300 g/ha with Setaria viridis is 60 to 80%. In addition, the inhibition at 300 g/ha with Chenopodium album was 90 to 100%.

Take `Cc1nn(-c2cc3nc([S+]([O-])Cc4ccccc4)sc3cc2F)c(=O)n1C` (stereo not drawn) [Compound 101, 1-(2-(benzylsulfinyl)-6-fluorobenzo[d]thiazol-5-yl)-3,4-dimethyl-1H-1,2,4-triazol-5(4H)-one]: the melting point lay in the range of 162 to 164 °C. Further, the inhibition at 300 g/ha with Echinochloa crusgalli was 80 to 90%. Besides, the inhibition at 300 g/ha in the series on Amaranthus retroflexus lay within 60 to 80%. Besides, the inhibition at 300 g/ha with Brassica juncea was in the range of 50 to 60%. Besides, in the series with Digiatria sanguinalis, the inhibition at 300 g/ha was 60 to 80%. In the series with Setaria viridis, the inhibition at 300 g/ha is 60 to 80%. The inhibition at 300 g/ha in the series with Chenopodium album lay in the range of 80 to 90%.
